According to patent US20160120861A1, “Compositions and Methods for Treating an Arrhythmia with an Opioid Antagonist” (PURDUE PHARMA L.P., priority 2013, published 2016):

Assay: QT study following E14 principles: ECG effects (QTcI) of BTDS alone, BTDS with naltrexone, naltrexone and moxifloxacin relative to placebo
Details: for Mean change from baseline (QTcI): 24-hr ECG at steady state
Procedure: A QT study following E14 principles regarding design, conduct, analysis, and interpretation was conducted with the following objectives
Primary: • To evaluate the ECG effects of 10, 40, and 80 mcg/hr buprenorphine delivered by a Buprenorphine Transdermal System (BTDS) alone, or by BTDS dosed with naltrexone tablets, relative to placebo in healthy male and female subjects
To evaluate the ECG effects of moxifloxacin relative to placebo (assay sensitivity)
To evaluate the ECG effects of BTDS+Naltrexone (NTX) vs. BTDS alone
To evaluate the ECG effects of naltrexone alone vs. placebo
The study was a randomized, double-blind, placebo and positive controlled, parallel group study with the following parameters:
• Healthy male or female subjects aged 18 to 55 years, inclusive • Heart rate between 45-85 bpm • No clinically significant medical history or disease • Subjects with personal or family history of prolonged QT interval or abnormal cardiovascular condition excluded
60 subjects/treatment group
• 1) BTDS alone (Butrans® 5, 10, 20, 40, 80 mcg/hr) • 2) Moxifloxacin (400 mg single doses on Days 6, 13, 17) • 3) Placebo • 4) Naltrexone alone (NTX 50 mg q12 h days 4-17) • 5) BTDS+Naltrexone (BTDS 10, 20, 40, 80 mcg/hr with NTX 50 mg q12 h days 4-17)
BTDS or matching placebo patches were applied according to a dose-escalation and dose tapering scheme
24-hr ECG were collected at steady-state for each BTDS dose level at Days 6 (10 mcg/hr), 13 (40 mcg/hr) and 17 (80 mcg/hr).
Continuous 24-hr 12-lead digital Holter ECG collections were performed as follows: • Two 24-hour baseline recordings (Days −2 and −1) • Three 24-hour periods on-treatment for Days 6 (10 mcg/hr), 13 (40 mcg/hr) and 17 (80 mcg/hr).
ECGs were extracted at 13 time points (0, 0.5, 1, 1.5, 2, 2.5, 3, 4, 7, 10, 13, 18, 23.5 hours) over each 24-hour ECG recording period.
Subjects rested supine for at least 10 minutes prior to each nominal ECG extraction time and activity was limited for the prior 2 hours.
4 ECGs were extracted and quantified at each nominal time point by a blinded central ECG laboratory.
The primary QT correction for heart rate was QTcI. 104 baseline ECGs were used to determine subject-specific HR correction.
Placebo-corrected change from baseline QTcI means and 90% CIs were calculated using a mixed effects general linear model with covariates for time, treatment, time by treatment interaction, and sex.

SMILES | >30-60 ms inc, N (%) (Day 6, QTcI, healthy subjects) | >60 ms inc, N (%) (Day 6, QTcI, healthy subjects) | New >480 ms, N (%) (Day 6, QTcI, healthy subjects) | New >500 ms, N (%) (Day 6, QTcI, healthy subjects) | Mean change from baseline (QTcI) (Day 6, healthy subjects) | >30-60 ms inc, N (%) (Day 13, QTcI, healthy subjects) | >60 ms inc, N (%) (Day 13, QTcI, healthy subjects) | New >480 ms, N (%) (Day 13, QTcI, healthy subjects) | New >500 ms, N (%) (Day 13, QTcI, healthy subjects) | Mean change from baseline (QTcI) (Day 13, healthy subjects) | >30-60 ms inc, N (%) (Day 17, QTcI, healthy subjects) | >60 ms inc, N (%) (Day 17, QTcI, healthy subjects) | New >480 ms, N (%) (Day 17, QTcI, healthy subjects) | New >500 ms, N (%) (Day 17, QTcI, healthy subjects) | Mean change from baseline (QTcI) (Day 17, healthy subjects) | Mean change in baseline of the QT interval as compared to buprenorphine alone (naltrexone administered with buprenorphine) | >60 ms inc, N (%) (both, human, in vivo) | New >480 ms, N (%) (both, human, in vivo) | New >500 ms, N (%) (both, human, in vivo) | QTcI results (positive control, assay sensitivity) (in vivo)
O=C1CC[C@@]2(O)[C@H]3Cc4ccc(O)c5c4[C@@]2(CCN3CC2CC2)[C@H]1O5 [NTX, naltrexone] | 0 N (%) | 0 N (%) | 0 N (%) | 0 N (%) | 1.5 ms | 1 (2%) N (%) | 0 N (%) | 0 N (%) | 0 N (%) | -1.7 ms | 1 (2%) N (%) | 0 N (%) | 0 N (%) | 0 N (%) | -0.9 ms | reduced | – | – | – | –
COc1c(N2C[C@@H]3CCCN[C@@H]3C2)c(F)cc2c(=O)c(C(=O)O)cn(C3CC3)c12 [Moxifloxacin] | – | – | – | – | – | – | – | – | – | – | – | – | – | – | – | – | 0 N (%) | 0 N (%) | 0 N (%) | as expected
